The numbers were not newly measured in patent US6875793B2, “Once-a-day controlled release sulfonylurea formulation” (Penwest Pharmaceuticals Co., priority 1997, dated 2005), which cites them from elsewhere.

Each structure is given as a SMILES string.

The test system of one series is insulin secretion. To be noted: after an oral dose, diabetic patients.

In the case of `CC(=O)c1ccc(S(=O)(=O)NC(=O)NC2CCCCC2)cc1` [Acetohexamide], the solubility in alcohol entry (alcohol) is “slightly soluble”. The solubility in alkali result (alkali, e.g., 0.1N sodium hydroxide, dilute solutions of alkali hydroxides) is on record as “soluble”. Moreover, the solubility in water result (water) was “practically insoluble”.

`CCCNC(=O)NS(=O)(=O)c1ccc(Cl)cc1` [Chlorpropamide]: the “solubility in water at pH 6.0” value (water, pH 6.0) is on record as 2.2 mg/ml. Besides, the “solubility in water at pH 7.3” value (water, pH 7.3) is recorded as “practically non-soluble”.

`Cc1cnc(C(=O)NCCc2ccc(S(=O)(=O)NC(=O)NC3CCCCC3)cc2)cn1` [Glipizide]: the “time to insulinotropic response to a meal” value in the series on insulin secretion was at most 30 min.

Take `COc1ccc(Cl)cc1C(=O)NCCc1ccc(S(=O)(=O)NC(=O)NC2CCCCC2)cc1` [Glyburide]: for the setting “organic solvents”, the “solubility in organic solvents” value is “soluble”. For the same compound, the solubility in water entry (water) is “sparingly soluble”.

For the compound `Cc1ccc(S(=O)(=O)NC(=O)NN2CCCCCC2)cc1` [Tolazamide], the “solubility at pH 6.0 (mean urinary pH)” value (pH 6.0) was 27.8 mg per 100 ml. Moreover, the solubility in water result (water) is given as “relatively insoluble”.

For the compound `CCCCNC(=O)NS(=O)(=O)c1ccc(C)cc1` [Tolbutamide], the solubility in water entry (water) is reported as “practically insoluble”.
